# Tests used:
# [1] = tested on: aminoacylase PH1043; assay: Same detection method using aminoacylase PH1043 (Comparative Example 1); format: biochemical, Pyrococcus horikoshii; details: aminoacylase PH1043 instead of amidohydrolase; specimens 5, 10, 20 mM in saline; 37° C.; FIG. 4
# Method: The absorbance of each specimen was measured in the same manner as in Example, except for using hitherto known aminoacylase PH1043 instead of the amidohydrolase used in Example. The concentration of hippuric acid or methylhippuric acid in each examination specimen was calculated from the measured absorbance and plotted on a graph. The abscissa, ordinate, and symbols in FIG. 4 are the same as those in FIG. 3.
# The aminoacylase PH1043 used in Comparative Example 1 is one produced by Nipro Corporation. The aminoacylase PH1043 will not be described in detail as it is a hitherto known enzyme described, for example, in the following literatures: Imai Satsuki, Nagoshi Kentaro, Shinki Shota, Baba Toshiaki, Nishiya Yoshiaki, “Functional Modification of Pyrococcus horikoshii-Derived Hippurate Hydrolase”, The Society for Biotechnology, Japan (2018) (Reference Literature 7); Imai Satsuki, Nagoshi Kentaro, Shinki Shota, Baba Toshiaki, Nishiya Yoshiaki, “Development of Method and Enzyme for Enzymatic Assay of Hippuric Acid”, The Society of Analytical Bio-Science (2019) (Reference Literature 8); Imai Satsuki, Nagoshi Kentaro, Shinki Shota, Baba Toshiaki, Nishiya Yoshiaki, “Functional Improvement of Hippurate Hydrolase”, Japan Society for Bioscience, Biotechnology and Agrochemistry (2019) (Reference Literature 9); Imai Satsuki, Nagoshi Kentaro, Shinki Shota, Baba Toshiaki, Nishiya Yoshiaki, “Functional Improvement of Hippurate Hydrolase toward Practical Use”, The Molecular Biology Society of Japan (2019) (Reference Literature 10); Imai Satsuki, Nagoshi Kentaro, Shinki Shota, Baba Toshiaki, Nishiya Yoshiaki, “Development of Enzymatic Assay Method for Determining Total Exposure to Toluene and Xylene (1)”, The Society of Analytical Bio-Science (2020) (Reference Literature 11); and Suginaka Muneyuki, Torii Gento, Imai Satsuki, Baba Toshiaki, Nishiya Yoshiaki, “Development of Enzymatic Assay Method for Determining Total Exposure to Toluene and Xylene (2)”, The Molecular Biology Society of Japan (2020) (Reference Literature 12). The contents of Reference Literatures 7 to 12 are incorporated herein by reference.
# [2] = tested on: amidohydrolase 4ewt (amino acid sequence of SEQ ID NO: 1, SACOL0085); assay: Enzymatic detection of hippuric acid or methylhippuric acid by hydrolysis with amidohydrolase 4ewt and glycine oxidase/Trinder absorbance measurement (Example); format: biochemical, Staphylococcus aureus COL; details: amidohydrolase 4ewt 30 units/mL; specimens 5, 10, 20 mM in saline; 37° C.; Tris buffer pH 8.5; absorbance 545 nm; FIG. 3
# Method: A first reagent R1 was prepared which contained 30 units/mL of amidohydrolase 4ewt, 7.5 units/mL of peroxidase, 4.5 mM of N-ethyl-N-(2-hydroxy-3-sulfopropyl)-3-methoxyaniline (TOOS), and 50 mM of Tris buffer (pH 8.5), and a second reagent R2 was prepared which contained 5 units/mL of glycine oxidase, 1.2 mM of 4-aminoantipyrine, and 100 mM of Tris buffer (pH 8.5).
# Specimen Groups 1 to 4 and Specimen 0 were prepared as measurement samples, i.e., examination specimens.
# Each of the examination specimens was diluted to five times by means of an automatic analyzer to prepare a diluted specimen solution. A volume of 60 μL of the first reagent R1 was added and mixed with 2 μL of the diluted specimen solution, and the reaction was allowed to proceed well at 37° C. After that, 20 μL of the second reagent R2 was further added and mixed with the reaction mixture, and the reaction was allowed to proceed well at 37° C. The absorbance of the resulting specimen solution was measured using an automatic analyzer, manufactured by JEOL Ltd. under the trade name JCA-BM 6050, at a primary wavelength of 545 nm and a secondary wavelength of 805 nm. The concentration of hippuric acid or methylhippuric acid in each examination specimen was calculated from the measured absorbance and plotted on a graph.
# In FIG. 3, the abscissa represents known concentrations (unit: mM) of hippuric acid or methylhippuric acid in the examination specimens and the ordinate represents measured concentrations (unit: mM) obtained by the automatic analyzer. In FIG. 3, the diamond symbols represent the specimens of Specimen Group 1, namely the examination specimens containing hippuric acid, the square symbols represent the specimens of Specimen Group 2, namely the examination specimens containing 2-methylhippuric acid, the triangle symbols represent the specimens of Specimen Group 3, namely the examination specimens containing 3-methylhippuric acid, and the x symbols represent the specimens of Specimen Group 4, namely the examination specimens containing 4-methylhippuric acid. The examination specimen for which the known concentration is 0 mM is Specimen 0, which is represented by using all of the symbols representing Specimen Groups 1 to 4 since, as previously stated, Specimen 0 was used as a negative control in measurement for the Specimen Groups 1 to 4.
# The amidohydrolase 4ewt used in Example was produced using a gene chemically synthesized by converting the amino acid sequence of SEQ ID NO: 1 to a base sequence. […]
# [3] = tested on: hippurate hydrolase (EC 3.5.1.32); assay: Same detection method using hippurate hydrolase (Comparative Example 2); format: biochemical; details: hippurate hydrolase instead of amidohydrolase; specimens 5, 10, 20 mM in saline; 37° C.; FIG. 5
# Method: The absorbance of each specimen was measured in the same manner as in Example, except for using a hitherto known hippurate hydrolase (EC 3.5.1.32, manufactured by Nipro Corporation) instead of the amidohydrolase used in Example. The concentration of hippuric acid or methylhippuric acid in each examination specimen was calculated from the measured absorbance and plotted on a graph. The abscissa, ordinate, and symbols in FIG. 5 are the same as those in FIG. 3 or 4.
SMILES,agreement of measured concentration with actual concentration in the specimen (hydrolysis by the enzyme) [1],agreement of measured concentration with known concentration in the specimen (hydrolysis by the enzyme) [2],agreement of measured concentration with actual concentration in the specimen (hydrolysis by the enzyme) [3]
"O=C(O)CNC(=O)c1ccccc1 [hippuric acid, benzoylaminoacetic acid]",agreed well with the actual concentrations,agree well with each other,agreed well with the actual concentrations
Cc1cccc(C(=O)NCC(=O)O)c1 [3-methylhippuric acid],agreed well with the actual concentrations,agree well with each other,agreed well with the actual concentrations
Cc1ccc(C(=O)NCC(=O)O)cc1 [4-methylhippuric acid],agreed well with the actual concentrations,agree well with each other,agreed well with the actual concentrations
"Cc1ccccc1C(=O)NCC(=O)O [2-methylhippuric acid, (2-methylbenzoylamino)acetic acid]",not much different from the measured concentration obtained for the negative control,agree well with each other,not much different from the measured concentration obtained for the negative control

# From US20250257383A1, “MATERIAL DETECTION METHOD USING AMINOACYLASE” (JOSHO GAKUEN EDUCATIONAL FOUNDATION, priority 2021, published 2025)
